Measured values reported in PMC5218480 (PLoS ONE, 2017).

Tested on: MV-4-11 cells
Experiment: Gene expression microarray analysis (Affymetrix PrimeView) and GSEA
Type: cell-based, human
Design: RFU PODN (11730768_x_at) / Fold change /veh PODN (11730768_x_at) / RFU LINC00158 (11744669_a_at) / Fold change /veh LINC00158 (11744669_a_at) / RFU DUSP10 (11751237_a_at) / Fold change /veh DUSP10 (11751237_a_at) / RFU ID3 (11757404_x_at) / Fold change /veh ID3 (11757404_x_at) / RFU PLEKHG5 (11737974_s_at) / Fold change /veh PLEKHG5 (11737974_s_at) / RFU LRRC4B (11730491_at) / Fold change /veh LRRC4B (11730491_at) / RFU GIMAP4 (11747438_a_at) / Fold change /veh GIMAP4 (11747438_a_at) / RFU KRT8 (11758183_x_at) / Fold change /veh KRT8 (11758183_x_at) / RFU CNN1 (11734310_a_at) / Fold change /veh CNN1 (11734310_a_at) / RFU VPS37D (11726825_at) / Fold change /veh VPS37D (11726825_at) / RFU C10orf10 (11716522_x_at) / Fold change /veh C10orf10 (11716522_x_at) / RFU KIR2DL2 /// KIR2DL4 /// KIR2DL5A /// KIR2DL5B /// KIR2DS1 /// KIR2DS2 /// KIR2DS3 /// KIR2DS4 /// KIR3DL3 /// KIR3DL3 /// KIR3DS1 (11738374_at) / Fold change /veh KIR2DL2 /// KIR2DL4 /// KIR2DL5A /// KIR2DL5B /// KIR2DS1 /// KIR2DS2 /// KIR2DS3 /// KIR2DS4 /// KIR3DL3 /// KIR3DL3 /// KIR3DS1 (11738374_at) / RFU C1QL1 (11718748_at) / Fold change /veh C1QL1 (11718748_at) / RFU TMPRSS4 (11747572_a_at) / Fold change /veh TMPRSS4 (11747572_a_at) / RFU HAMP (11756126_x_at) / Fold change /veh HAMP (11756126_x_at) / RFU RNFT2 (11725882_a_at) / Fold change /veh RNFT2 (11725882_a_at) / RFU NR4A2 (11747474_a_at) / Fold change /veh NR4A2 (11747474_a_at) / RFU ABCC12 (11746883_a_at) / Fold change /veh ABCC12 (11746883_a_at) / RFU TMEM136 (11760407_x_at) / Fold change /veh TMEM136 (11760407_x_at) / RFU CLDN22 /// WWC2 (11732394_at) / Fold change /veh CLDN22 /// WWC2 (11732394_at) / RFU HLA-DPB1 (11760878_x_at) / Fold change /veh HLA-DPB1 (11760878_x_at) / RFU SPINT1 (11716480_a_at) / Fold change /veh SPINT1 (11716480_a_at) / RFU GAP43 (11754022_s_at) / Fold change /veh GAP43 (11754022_s_at) / RFU A4GNT (11735810_at) / Fold change /veh A4GNT (11735810_at) / RFU PRB3 (11715151_x_at) / Fold change /veh PRB3 (11715151_x_at) / RFU TUBB4B (11761932_at) / Fold change /veh TUBB4B (11761932_at) / RFU CAPN14 (11732068_a_at) / Fold change /veh CAPN14 (11732068_a_at) / RFU TMCC2 (11721928_a_at) / Fold change /veh TMCC2 (11721928_a_at) / RFU IRGQ (11745062_a_at) / Fold change /veh IRGQ (11745062_a_at) / RFU FAM174B (11720279_a_at) / Fold change /veh FAM174B (11720279_a_at) / RFU TMPRSS4 (11748680_a_at) / Fold change /veh TMPRSS4 (11748680_a_at) / RFU FAM212B (11763350_a_at) / Fold change /veh FAM212B (11763350_a_at) / RFU PLEKHG5 (11743358_a_at) / Fold change /veh PLEKHG5 (11743358_a_at) / RFU ZSCAN30 (11745921_a_at) / Fold change /veh ZSCAN30 (11745921_a_at) / RFU CMKLR1 (11741424_a_at) / Fold change /veh CMKLR1 (11741424_a_at) / RFU LOC101060620 /// MAPK8IP1 (11723275_at) / Fold change /veh LOC101060620 /// MAPK8IP1 (11723275_at) / RFU SPTSSB (11747773_x_at) / Fold change /veh SPTSSB (11747773_x_at) / RFU PRSS12 (11739890_at) / Fold change /veh PRSS12 (11739890_at) / RFU BIN1 (11741810_x_at) / Fold change /veh BIN1 (11741810_x_at) / RFU WNT11 (11732464_a_at) / Fold change /veh WNT11 (11732464_a_at) / RFU C10orf10 (11716521_a_at) / Fold change /veh C10orf10 (11716521_a_at) / RFU C5orf56 (11738089_at) / Fold change /veh C5orf56 (11738089_at) / RFU CYB561 (11721691_x_at) / Fold change /veh CYB561 (11721691_x_at) / RFU ANKRD19P (11752326_a_at) / Fold change /veh ANKRD19P (11752326_a_at) / RFU OR2T12 /// OR2T33 /// OR2T8 (11738714_s_at) / Fold change /veh OR2T12 /// OR2T33 /// OR2T8 (11738714_s_at) / RFU VCAN (11748164_a_at) / Fold change /veh VCAN (11748164_a_at) / RFU JSRP1 (11732532_at) / Fold change /veh JSRP1 (11732532_at) / RFU KRTAP10-11 (11738290_x_at) / Fold change /veh KRTAP10-11 (11738290_x_at) / RFU MYO3A (11730013_a_at) / Fold change /veh MYO3A (11730013_a_at) / RFU EBF3 (11725865_a_at) / Fold change /veh EBF3 (11725865_a_at) / RFU CAMK2N1 (11719241_x_at) / Fold change /veh CAMK2N1 (11719241_x_at) / RFU C5orf56 (11738088_a_at) / Fold change /veh C5orf56 (11738088_a_at) / RFU OLFML3 (11715873_a_at) / Fold change /veh OLFML3 (11715873_a_at) / RFU LOC100653217 /// NTM (11731650_a_at) / Fold change /veh LOC100653217 /// NTM (11731650_a_at) / RFU MAPK11 (11762145_a_at) / Fold change /veh MAPK11 (11762145_a_at) / RFU FIZ1 (11724087_x_at) / Fold change /veh FIZ1 (11724087_x_at) / RFU OASL (11726364_x_at) / Fold change /veh OASL (11726364_x_at) / RFU SOX15 (11748057_x_at) / Fold change /veh SOX15 (11748057_x_at) / RFU CD79A (11719716_a_at) / Fold change /veh CD79A (11719716_a_at) / RFU HIST1H1D (11736915_at) / Fold change /veh HIST1H1D (11736915_at) / RFU CASKIN2 (11723855_a_at) / Fold change /veh CASKIN2 (11723855_a_at) / RFU LOC730098 (11760151_x_at) / Fold change /veh LOC730098 (11760151_x_at) / RFU OR4N2 (11742367_at) / Fold change /veh OR4N2 (11742367_at) / RFU PRRT2 (11749266_a_at) / Fold change /veh PRRT2 (11749266_a_at) / RFU SNX32 (11753110_a_at) / Fold change /veh SNX32 (11753110_a_at) / RFU CDHR5 (11726645_a_at) / Fold change /veh CDHR5 (11726645_a_at) / RFU RCAN1 (11760418_a_at) / Fold change /veh RCAN1 (11760418_a_at) / RFU FAM167A (11723789_a_at) / Fold change /veh FAM167A (11723789_a_at) / RFU FAM26E (11764081_at) / Fold change /veh FAM26E (11764081_at) / RFU ISYNA1 (11749810_s_at) / Fold change /veh ISYNA1 (11749810_s_at) / RFU ACY1 (11761880_at) / Fold change /veh ACY1 (11761880_at) / RFU 11764098_at / Fold change /veh 11764098_at / RFU SAMD14 (11745864_x_at) / Fold change /veh SAMD14 (11745864_x_at) / RFU NPB (11741838_a_at) / Fold change /veh NPB (11741838_a_at) / RFU TMPRSS6 (11731388_a_at) / Fold change /veh TMPRSS6 (11731388_a_at) / RFU KRTAP10-2 (11738614_at) / Fold change /veh KRTAP10-2 (11738614_at) / RFU ARHGAP8 /// PRR5-ARHGAP8 (11727945_x_at) / Fold change /veh ARHGAP8 /// PRR5-ARHGAP8 (11727945_x_at) / RFU KRTAP5-7 /// NADSYN1 (11734609_at) / Fold change /veh KRTAP5-7 /// NADSYN1 (11734609_at) / RFU RASL12 (11751679_a_at) / Fold change /veh RASL12 (11751679_a_at) / RFU CDKN2B (11736163_a_at) / Fold change /veh CDKN2B (11736163_a_at) / RFU PRF1 (11729649_at) / Fold change /veh PRF1 (11729649_at) / RFU, ZNF638 /// ZNF638-IT1 / Fold change vs veh, ZNF638 /// ZNF638-IT1 / RFU, PANK3 / Fold change vs veh, PANK3 / RFU, SH3YL1 / Fold change vs veh, SH3YL1 / RFU, ZEB2 / Fold change vs veh, ZEB2 / RFU, NRIP1 / Fold change vs veh, NRIP1 / RFU, PTTG1IP / Fold change vs veh, PTTG1IP / RFU, CAPN2 / Fold change vs veh, CAPN2 / RFU, MED14 / Fold change vs veh, MED14 / RFU, SNORA58 / Fold change vs veh, SNORA58 / RFU, C1orf63 / Fold change vs veh, C1orf63 / RFU, LRRFIP1 / Fold change vs veh, LRRFIP1 / RFU, NDUFAF7 / Fold change vs veh, NDUFAF7 / RFU, SLC12A2 / Fold change vs veh, SLC12A2 / RFU, IBTK / Fold change vs veh, IBTK / RFU, ESF1 / Fold change vs veh, ESF1 / Fold change vs veh, TMEM50B / RFU, TAOK1 / Fold change vs veh, TAOK1 / RFU, ACBD3 / Fold change vs veh, ACBD3 / RFU, TMA16 / Fold change vs veh, TMA16 / RFU, RWDD3 / Fold change vs veh, RWDD3 / RFU, BCAT1 / Fold change vs veh, BCAT1 / RFU, EDEM3 / Fold change vs veh, EDEM3 / RFU, TMEM33 / Fold change vs veh, TMEM33 / RFU, WDR75 / Fold change vs veh, WDR75 / RFU, AHCTF1 / Fold change vs veh, AHCTF1 / RFU, TFRC / Fold change vs veh, TFRC / RFU, ZDHHC17 / Fold change vs veh, ZDHHC17 / RFU, NOM1 / Fold change vs veh, NOM1 / RFU, ARL8B / Fold change vs veh, ARL8B / RFU, ZBTB11 / Fold change vs veh, ZBTB11 / RFU, TAMM41 / Fold change vs veh, TAMM41 / RFU, KIAA1704 /// LOC100996395 / Fold change vs veh, KIAA1704 /// LOC100996395 / RFU, ING1 / Fold change vs veh, ING1 / RFU, TRMT61B / Fold change vs veh, TRMT61B / RFU, FUBP3 / Fold change vs veh, FUBP3 / RFU, TP53 / Fold change vs veh, TP53 / RFU, TNKS2 / Fold change vs veh, TNKS2 / RFU, ZFP14 / Fold change vs veh, ZFP14 / RFU, ACTR2 / Fold change vs veh, ACTR2 / RFU, PPP3R1 / Fold change vs veh, PPP3R1 / RFU, PIK3R1 / Fold change vs veh, PIK3R1 / RFU, HNRNPA1 / Fold change vs veh, HNRNPA1 / RFU, RNF170 / Fold change vs veh, RNF170 / RFU, ZNF28 / Fold change vs veh, ZNF28 / RFU, RNGTT / Fold change vs veh, RNGTT / RFU, OGT / Fold change vs veh, OGT / RFU, BRD1 / Fold change vs veh, BRD1 / RFU, MARS / Fold change vs veh, MARS / RFU, ZNF655 / Fold change vs veh, ZNF655 / RFU, FAHD1 / Fold change vs veh, FAHD1 / RFU, BDP1 / Fold change vs veh, BDP1 / RFU, LRRCC1 / Fold change vs veh, LRRCC1 / RFU, ARID1A / Fold change vs veh, ARID1A / RFU, ZNF146 / Fold change vs veh, ZNF146 / RFU, ZNF330 / Fold change vs veh, ZNF330 / RFU, GPN3 / Fold change vs veh, GPN3 / RFU, C9orf123 / Fold change vs veh, C9orf123 / RFU, N4BP2L2 / Fold change vs veh, N4BP2L2 / RFU, ARFIP1 / Fold change vs veh, ARFIP1 / RFU, FAM179B / Fold change vs veh, FAM179B / RFU, BCL10 / Fold change vs veh, BCL10 / RFU, UHRF1BP1L / Fold change vs veh, UHRF1BP1L / RFU, BET1 / Fold change vs veh, BET1 / RFU, CNOT2 / Fold change vs veh, CNOT2 / RFU, ZNF268 / Fold change vs veh, ZNF268 / Fold change vs veh, ZNF507 / RFU, DGCR2 / Fold change vs veh, DGCR2 / RFU, WDSUB1 / Fold change vs veh, WDSUB1 / Fold change vs veh, HSP90B1 /// MIR3652 / RFU, ADSS / Fold change vs veh, ADSS / RFU, GK / Fold change vs veh, GK / RFU, ZNF148 / Fold change vs veh, ZNF148 / RFU, TAF9 / Fold change vs veh, TAF9 / RFU, SLC1A5 / Fold change vs veh, SLC1A5 / RFU, SLMO2 / Fold change vs veh, SLMO2 / RFU, ABCC4 / Fold change vs veh, ABCC4 / RFU, LOC101060439 /// RAP1B / Fold change vs veh, LOC101060439 /// RAP1B / RFU, RFX7 / Fold change vs veh, RFX7 / RFU, GTPBP10 / Fold change vs veh, GTPBP10 / RFU, CNEP1R1 / Fold change vs veh, CNEP1R1 / RFU, BIVM-ERCC5 /// ERCC5 / Fold change vs veh, BIVM-ERCC5 /// ERCC5 / RFU, ILF3 / Fold change vs veh, ILF3 / RFU 11762660_at / Fold change /veh 11762660_at / RFU VCAN (11757783_s_at) / Fold change /veh VCAN (11757783_s_at) / RFU DDX43 (11728927_at) / Fold change /veh DDX43 (11728927_at) / RFU KRT8 (11758188_x_at) / Fold change /veh KRT8 (11758188_x_at) / RFU NKD1 (11759106_at) / Fold change /veh NKD1 (11759106_at) / RFU SRD5A1 (11742802_a_at) / Fold change /veh SRD5A1 (11742802_a_at) / RFU TPSAB1 /// TPSB2 (11721975_s_at) / Fold change /veh TPSAB1 /// TPSB2 (11721975_s_at) / RFU GSTM3 (11746129_a_at) / Fold change /veh GSTM3 (11746129_a_at) / RFU IL23R (11737362_x_at) / Fold change /veh IL23R (11737362_x_at) / RFU TMEM51 (11727254_a_at) / Fold change /veh TMEM51 (11727254_a_at) / RFU PIWIL2 (11732686_x_at) / Fold change /veh PIWIL2 (11732686_x_at) / RFU ORM1 (11744905_x_at) / Fold change /veh ORM1 (11744905_x_at) / RFU CCDC152 (11743942_at) / Fold change /veh CCDC152 (11743942_at) / RFU ECM1 (11717891_a_at) / Fold change /veh ECM1 (11717891_a_at) / RFU IL23R (11748794_a_at) / Fold change /veh IL23R (11748794_a_at) / RFU TNFAIP8L3 (11732012_x_at) / Fold change /veh TNFAIP8L3 (11732012_x_at) / RFU MBOAT4 (11741988_at) / Fold change /veh MBOAT4 (11741988_at) / RFU 11764193_at / Fold change /veh 11764193_at / RFU TMEM53 (11763286_at) / Fold change /veh TMEM53 (11763286_at) / RFU MAGEB2 (11727129_at) / Fold change /veh MAGEB2 (11727129_at) / RFU TMEM200A (11744735_a_at) / Fold change /veh TMEM200A (11744735_a_at) / RFU CCDC152 (11751479_a_at) / Fold change /veh CCDC152 (11751479_a_at) / RFU FAM211A (11726209_a_at) / Fold change /veh FAM211A (11726209_a_at) / RFU RGS16 (11746705_a_at) / Fold change /veh RGS16 (11746705_a_at) / RFU VCAN (11755009_s_at) / Fold change /veh VCAN (11755009_s_at) / RFU RHOB (11743442_s_at) / Fold change /veh RHOB (11743442_s_at) / RFU RGS16 (11720943_a_at) / Fold change /veh RGS16 (11720943_a_at) / RFU RGS16 (11720944_at) / Fold change /veh RGS16 (11720944_at) / RFU, VPS4B / Fold change vs veh, VPS4B / RFU, CREB1 / Fold change vs veh, CREB1 / RFU, DNAJC13 / Fold change vs veh, DNAJC13 / RFU, GNAQ / Fold change vs veh, GNAQ / RFU, CDK5R1 / Fold change vs veh, CDK5R1 / RFU, ZRANB3 / Fold change vs veh, ZRANB3 / RFU, CUL4A / Fold change vs veh, CUL4A / RFU, CCNY / Fold change vs veh, CCNY / RFU, UFL1 / Fold change vs veh, UFL1 / RFU, COG3 / Fold change vs veh, COG3 / RFU, DIAPH2 / Fold change vs veh, DIAPH2 / RFU, SKA2 / Fold change vs veh, SKA2 / RFU, AFF3 / Fold change vs veh, AFF3 / RFU, LMF1 / Fold change vs veh, LMF1 / RFU, IPO11 / Fold change vs veh, IPO11 / RFU, DFFB / Fold change vs veh, DFFB / RFU, FOXP1 / Fold change vs veh, FOXP1 / RFU, CARD8 / Fold change vs veh, CARD8 / RFU, STRN3 / Fold change vs veh, STRN3 / RFU, ADK / Fold change vs veh, ADK / RFU, RASSF2 / Fold change vs veh, RASSF2 / RFU, WIPF1 / Fold change vs veh, WIPF1 / RFU, LARP1B / Fold change vs veh, LARP1B / RFU, RASA1 / Fold change vs veh, RASA1 / RFU, RB1 / Fold change vs veh, RB1 / RFU, PPFIA1 / Fold change vs veh, PPFIA1 / RFU, MAT2A / Fold change vs veh, MAT2A / RFU, CCT5 / Fold change vs veh, CCT5 / RFU, WDR92 / Fold change vs veh, WDR92 / RFU, CUX1 / Fold change vs veh, CUX1 / RFU, TTC7A / Fold change vs veh, TTC7A / RFU, TMEM135 / Fold change vs veh, TMEM135 / RFU, DEPTOR / Fold change vs veh, DEPTOR / RFU, CPM / Fold change vs veh, CPM / RFU, DNAJB6 / Fold change vs veh, DNAJB6 / RFU, CACNA2D3 / Fold change vs veh, CACNA2D3 / RFU, DTX4 / Fold change vs veh, DTX4 / RFU, TFCP2 / Fold change vs veh, TFCP2 / RFU, GMCL1 /// GMCL1P1 / Fold change vs veh, GMCL1 /// GMCL1P1 / RFU, AEBP2 / Fold change vs veh, AEBP2 / RFU, SNHG1 /// SNORD22 /// SNORD25 /// SNORD26 /// SNORD27 /// SNORD28 /// SNORD29 /// SNORD31 / Fold change vs veh, SNHG1 /// SNORD22 /// SNORD25 /// SNORD26 /// SNORD27 /// SNORD28 /// SNORD29 /// SNORD31 / Fold change (Aza/veh), C12orf56 (ProbeSet 11735607_a_at) / Fold change (ACY-1035/veh), C12orf56 (ProbeSet 11735607_a_at) / Fold change (Aza/veh), FGFR1OP (ProbeSet 11751329_s_at) / Fold change (ACY-1035/veh), FGFR1OP (ProbeSet 11751329_s_at) / Fold change (Aza/veh), VPS36 (ProbeSet 11739960_a_at) / Fold change (ACY-1035/veh), VPS36 (ProbeSet 11739960_a_at) / RFU SYPL1 (11715823_x_at) / Fold change /veh SYPL1 (11715823_x_at) / RFU IGFBP7 (11715501_s_at) / Fold change /veh IGFBP7 (11715501_s_at) / RFU REEP3 (11722064_at) / Fold change /veh REEP3 (11722064_at) / RFU IGLL1 (11728026_x_at) / Fold change /veh IGLL1 (11728026_x_at): dose or concentration left out as unconfirmed
Details: ProbeSet 11743567_s_at; LIST B

Nc1ncn([C@@H]2O[C@H](CO)[C@@H](O)[C@H]2O)c(=O)n1 [azacitidine]
RFU, ACBD3: 255.44 RFU
